“Also recorded” adds a separate entry of the source.
Experiments:
[1] = molecular target: T1, Cysteineless Mouse MDR3 P-glycoprotein (Mus musculus, UniProt P21447, C1070A/C1121A/C1223A/C133A/C427A/C638A/C669A/C713A/C952A); assay: ATPase activity assay (basal and verapamil-stimulated), purified P-gp in mixed micelles; assay type: biochemical; details: for Effect on stimulated ATPase / Stimulated ATPase: in the presence of verapamil; for Stimulated ATPase / Basal ATPase: ± standard deviation; for Effect on basal ATPase / Basal ATPase: no added transport substrate
T1 construct: made in house; host or cells: Pichia pastoris
Protocol: Evaluation of mode of inhibition of P-glycoprotein by Group 1 and Group 2 variants of compound 29. To assess the mode of inhibition of P-gp by the novel variants of P-gp inhibitor 29, ATP hydrolysis by P-gp was evaluated in the presence or absence of the variants. […] Murine P-gp (MDR3) expressed in Pichia pastoris that had all naturally occurring cysteines replaced with alanine, was used^45, 46. It is widely assumed that the ATP hydrolytic rate of P-gp is stimulated in the presence of transport substrates when compared to ATP hydrolysis in the absence of transport substrates. Assays comparing these rates can therefore be useful not only in identifying inhibitors of P-gp catalyzed ATP hydrolysis, but also to potentially infer whether a compound might be a transport substrate if basal ATPase rates are stimulated by the addition of a compound.
P-glycoprotein Purification. Cysteine-less MDR3 and the human normal MDR1 P-glycoprotein was recombinantly expressed in the yeast Pichia pastoris essentially as in^45, 46 and used for assaying ATP hydrolysis and ATP binding to the protein in the presence of the 29-variants. Purification of the protein was performed as described^49 with small modifications resulting in highly enriched P-gp in mixed micelles containing dodecyl maltoside (DDM) and lysophosphatidyl choline^26.
ATPase Activity Assays. ATP hydrolysis activity was measured using a coupled enzyme assay^72 as modified in reference^26.

[2] = molecular target: T2, cysteineless mouse P-glycoprotein (Mus musculus, UniProt P21447, C1070A/C1121A/C1223A/C133A/C427A/C638A/C669A/C713A/C952A); assay: SL-ATP (spin-labeled ATP analog) binding titration by ESR; details: for Maximum ATP binding: in the presence of the compound, ± standard deviation
T2 construct: made in house; host or cells: Pichia pastoris
Protocol: Effects of 29 variants on binding of an ATP-analog to purified P-glycoprotein. ATP binding in the presence of the 29 variants was assessed in titration assays using a spin-labeled analog of ATP, 2′,3′-SL-ATP (2′,3′-(2,2,5,5,-tetramethyl-3-pyrroline-1-oxyl-3-carboxylic acid ester) ATP; (2′,3′ indicates a rapid equilibrium of the ester bond between the C2′ and C3′ of the ribose moiety))^48-50, and electron spin resonance spectroscopy as described in^26. Due to the lower stability of the human P-glycoprotein in the extended times needed for these experiments, the cysteineless mouse protein was used here. The goal was to assess whether binding of the 29 variants to P-gp affected nucleotide binding to the protein.
ESR Measurements. ESR measurements were as described in^26. The amount of protein-bound spin-labeled (SL) adenine nucleotide was determined as the difference between the known total concentration of SL-ATP (2′,3′-(2,2,5,5,-tetramethyl-3-pyrroline-1-oxyl-3-carboxylic acid ester) —ATP^48) added and the free spin-labeled nucleotide (SL-ANP) observed in the experiment. Hyperbolic curve fitting of the results was performed using GraphPad Prism 7 to determine maximum binding and apparent affinity for the spin-labeled nucleotide. The equation used for the fitting the curves was […], where P1 corresponds to the maximum binding of SL-ANP (moles of SL-ANP bound per mole P-gp), and P2 equals the apparent dissociation constant for SL-ANP. To quantify the amount of free SL-ANP, standard curves were established where the signal amplitude of the high field signal of the ESR spectra of free SL-ANP in the absence of protein was correlated to the concentration of SL-ANP added. All ESR measurements were performed using a Bruker EMX 6/1 ESR spectrophotometer operating in X-band mode and equipped with a high sensitivity cavity. Spectra were acquired at a microwave frequency of 9.33 GHz, microwave power of 12.63 mW, 100 kHz modulation frequency and a resolution of 1024 points. The centerfield of the scan was at 3325 G and an area of 100 G was scanned. The peak to peak modulation amplitude was 1G and the time constant was set to 10.240 ms. The conversion time was 163.84 ms, resulting in a total time sweep of 167.772 s. The signal gain was adjusted for the SL-ATP concentrations in the different experiments.

T2 sequence (P21447 whole entry C133A/C427A/C638A/C669A/C713A/C952A/C1070A/C1121A/C1223A): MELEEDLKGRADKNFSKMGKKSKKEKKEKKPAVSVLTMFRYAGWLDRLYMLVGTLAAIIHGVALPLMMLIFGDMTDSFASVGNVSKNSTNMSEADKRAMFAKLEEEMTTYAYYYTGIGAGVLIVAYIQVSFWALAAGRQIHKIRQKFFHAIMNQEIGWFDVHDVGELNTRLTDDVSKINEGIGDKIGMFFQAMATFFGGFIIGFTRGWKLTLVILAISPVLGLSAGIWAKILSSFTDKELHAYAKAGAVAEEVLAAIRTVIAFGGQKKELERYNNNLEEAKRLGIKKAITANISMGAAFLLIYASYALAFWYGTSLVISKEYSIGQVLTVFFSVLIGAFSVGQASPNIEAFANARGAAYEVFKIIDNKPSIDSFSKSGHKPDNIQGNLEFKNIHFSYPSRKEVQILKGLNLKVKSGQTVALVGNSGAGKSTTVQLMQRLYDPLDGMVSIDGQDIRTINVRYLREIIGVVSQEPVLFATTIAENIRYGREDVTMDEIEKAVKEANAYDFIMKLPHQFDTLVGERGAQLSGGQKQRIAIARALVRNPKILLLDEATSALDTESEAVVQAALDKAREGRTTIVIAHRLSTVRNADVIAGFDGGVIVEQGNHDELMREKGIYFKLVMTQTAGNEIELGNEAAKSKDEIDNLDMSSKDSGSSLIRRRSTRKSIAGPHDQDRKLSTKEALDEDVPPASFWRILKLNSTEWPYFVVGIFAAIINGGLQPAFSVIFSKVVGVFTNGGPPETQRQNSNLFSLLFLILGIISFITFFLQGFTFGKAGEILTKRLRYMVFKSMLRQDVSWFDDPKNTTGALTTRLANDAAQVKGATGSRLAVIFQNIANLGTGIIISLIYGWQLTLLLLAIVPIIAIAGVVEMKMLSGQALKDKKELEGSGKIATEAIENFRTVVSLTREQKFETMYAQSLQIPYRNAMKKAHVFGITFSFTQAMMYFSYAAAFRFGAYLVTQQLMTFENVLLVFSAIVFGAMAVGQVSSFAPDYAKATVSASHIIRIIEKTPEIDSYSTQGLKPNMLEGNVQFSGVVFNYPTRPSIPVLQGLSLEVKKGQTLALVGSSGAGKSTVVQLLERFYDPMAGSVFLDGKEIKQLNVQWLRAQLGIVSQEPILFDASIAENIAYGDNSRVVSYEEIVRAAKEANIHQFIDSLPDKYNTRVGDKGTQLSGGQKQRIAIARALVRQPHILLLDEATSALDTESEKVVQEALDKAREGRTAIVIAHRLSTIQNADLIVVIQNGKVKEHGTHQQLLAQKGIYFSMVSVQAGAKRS
T1 sequence (P21447 whole entry C133A/C427A/C638A/C669A/C713A/C952A/C1070A/C1121A/C1223A): as above

| Molecule | Effect on stimulated ATPase ([1]; listed as 216) | Effect on stimulated ATPase ([1]; listed as SMU29-216) | Stimulated ATPase [1] | Effect on basal ATPase ([1]; listed as 216) | Effect on basal ATPase ([1]; listed as SMU29-216) | Basal ATPase [1] | Effect on SL-ANP binding [2] | Maximum ATP binding [2] | Effect on stimulated ATPase ([1]; listed as 227) | Effect on stimulated ATPase ([1]; listed as SMU29-227) | Effect on basal ATPase ([1]; listed as 227) | Effect on basal ATPase ([1]; listed as SMU29-227) | Effect on stimulated ATPase ([1]; listed as 231) | Effect on stimulated ATPase ([1]; listed as SMU26-231) | Effect on basal ATPase ([1]; listed as SMU26-231) | Effect on stimulated ATPase [1] | Effect on basal ATPase [1] |
| --- | --- | --- | --- | --- | --- | --- | --- | --- | --- | --- | --- | --- | --- | --- | --- | --- | --- |
| 2-{[2-(9H-flouoren-2-yl)-2-oxoethyl]}-N-[1-phenyl-3-(2,4,5-trimethylphenyl0-1H-pyrazol-5-yl]acetamide [29-216] | did not affect; also recorded: little effect | none | 108 ± 2 % of DMSO | did not significantly affect; also recorded: did not activate | none | 105 ± 7 % of DMSO | no | 1.7 ± 0.1 mol SL-ANP bound/mol P-gp | – | – | – | – | – | – | – | – | – |
| Cc1cc(C)c(-c2cc(NC(=O)CSCC(=O)N3c4ccccc4CCc4ccccc43)n(-c3ccccc3)n2)cc1C [29-227, 2-[(2-{2-azatricyclo[9.4.0.0]pentadeca-1(11),3(8},4,6,12,14-hexaen-2-yl)-2-oxoethyl)sulfanyl]-N-[1-phenyl-3-(2,4,5-trimethylphenyl)-1H-pyrazol-5-yl]acetamide] | – | – | 50 ± 2 % of DMSO | – | – | 88 ± 4 % of DMSO | no | 1.8 ± 0.1 mol SL-ANP bound/mol P-gp | inhibited activity similar to parental compound 29; also recorded: inhibited verapamil-stimulated ATPase activity | inhibitor | did not significantly affect; also recorded: did not activate | none | – | – | – | – | – |
| Cc1cc(C)c(-c2cc(NC(=O)CSCC(=O)Nc3ccc4ccccc4c3)n(-c3ccccc3)n2)cc1C [29-231, 2-({[(naphthalen-2-yl)carbamoyl]methyl}sulfanyl)-N-[1-phenyl-3-(2,4,5-trimethylphenyl)-1H-pyrazol-5-yl]acetamide] | – | – | 141 ± 18 % of DMSO | – | – | 70 ± 0 % of DMSO | marginally | 1.8 ± 0.1 mol SL-ANP bound/mol P-gp | – | – | – | – | slightly stimulated | stimulator | inhibitor | – | – |
| Cc1cc(C)c(-c2cc(NC(=O)CSc3nnc(C4CC4)[nH]3)n(-c3ccccc3)n2)cc1C [compound 29, reference compound] | – | – | 49 ± 2 % of DMSO | – | – | 95 ± 11 % of DMSO | – | – | – | – | – | – | – | – | – | inhibitor | none |
